From patent US10844044B2 (Vanderbilt University, priority 2018, dated 2020)
Read-outs that look alike come from different tables or passages of the source.

Molecular target: WDR5 (Homo sapiens (Human), UniProt P61964)
Test: TR-FRET binding assay (displacement of 10mer-Thr-FAM probe from WDR5)
Conditions: read-out: Ki for Inhibition of WDR5 by TR-FRET assay
[1] = TR-FRET, 10mer-Thr-FAM probe, WDR5-His tag 2 nM, pH 7.0

SMILES	Ki [1] [nM]	Ki [nM]
COc1ncc(C)cc1-c1cc(Cn2ccn(C)c2=N)cc(C(=O)NC(c2cc(C)ccn2)C2CC2)c1 (stereo not shown) [Example 2, N-(Cyclopropyl(4-methylpyridin-2-yl)methyl)-3-((2-imino-3-methyl-2,3-dihydro-1-imidazol-1-yl)methyl)-5-(2-methoxy-5-methylpyridin-3-yl)benzamide]	< 0.1	
COc1ccnc(CNC(=O)c2cc(Cn3ccn(C)c3=N)cc(-c3cc(C)cnc3OC)c2)c1 [Example 4, 3-((2-imino-3-methyl-2,3-dihydro-1H-imidazol-1-yl)methyl)-5-(2-methoxy-5-methylpyridin-3-yl)-N-((4-methoxypyridin-2-yl)methyl)benzamide]	0.34	
Cc1cc(F)ccc1-c1cc(Cn2cc[nH]c2=N)cc(C(=O)NCc2ccc(Cl)c(Cl)c2)n1 [Example 6, N-(3,4-Dichlorobenzyl)-6-(4-fluoro-2-methylphenyl)-4-((2-imino-2,3-dihydro-1H-imidazol-1-yl)methyl)picolinamide]	24	
Cc1ccnc(C(NC(=O)c2cc(Cn3ccn(C)c3=N)cc(-c3ccnc(C)c3)c2)C2CC2)c1 (stereo not shown) [Example 7]	0.8	
Cc1ccnc(C(NC(=O)c2cc(Cn3ccn(C)c3=N)cc(-c3cccn3C)c2)C2CC2)c1 (stereo not shown) [Example 11, N-(Cyclopropyl(4-methylpyridin-2-yl)methyl)-3-((2-imino-3-methyl-2,3-dihydro-1H-imidazol-1-yl)methyl)-5-(1-methyl-1H-pyrrol-2-yl)benzamide]	0.83	
Cc1ccnc(C(NC(=O)c2cc(Cn3ccn(C)c3=N)cc(-c3ccnn3C)c2)C2CC2)c1 (stereo not shown) [Example 12, N-(Cyclopropyl(4-methylpyridin-2-yl)methyl)-3-((2-imino-3-methyl-2,3-dihydro-1H-imidazol-1-yl)methyl)-5-(1-methyl-1H-pyrazol-5-yl)benzamide]	1.2	
COc1cc(-c2cc(Cn3ccn(C)c3=N)cc(C(=O)NC(c3cc(C)ccn3)C3CC3)c2)ccn1 (stereo not shown) [Example 14]	6	
Cc1ccnc(C(NC(=O)c2cc(Cn3ccn(C)c3=N)cc(-c3cnccc3C)c2)C2CC2)c1 (stereo not shown) [Example 15, N-(Cyclopropyl(4-methylpyridin-2-yl)methyl)-3-((2-imino-3-methyl-2,3-dihydro-1H-imidazol-1-yl)methyl)-5-(4-methylpyridin-3-yl)benzamide]	2.7	
Cc1cc(CNC(=O)c2cc(Cn3ccn(C)c3=N)cc(-c3ccncc3C)c2)ccc1Cl [Example 16, N-(4-Chloro-3-methylbenzyl)-3-((2-imino-3-methyl-2,3-dihydro-1H-imidazol-1-yl)methyl)-5-(3-methylpyridin-4-yl)benzamide]	0.49	
Cc1cc(CNC(=O)c2cc(Cn3ccn(C)c3=N)cc(-c3ccnn3C)c2)ccc1Cl [Example 17, N-(4-Chloro-3-methylbenzyl)-3-((2-imino-3-methyl-2,3-dihydro 1H-imidazol-1-yl)methyl)-5-(1-methyl-1H-pyrazol-5-yl)benzamide]	0.94	
Cc1cc(-c2cc(Cn3ccn(C)c3=N)cc(C(=O)NCc3ccc(Cl)c(C)c3)c2)ccn1 [Example 18, N-(4-Chloro-3-methylbenzyl)-3-((2-imino-3-methyl-2,3-dihydro-1H-imidazol-1-yl)methyl)-5-(2-methylpyridin-4-yl)benzamide]	3.5	
Cc1cc(CNC(=O)c2cc(Cn3cc[nH]c3=N)cc(-c3cccn3C)c2)ccc1Cl [Example 19, N-(4-Chloro-3-methylbenzyl)-3-((2-imino-2,3-dihydro-1H-imidazol-1-yl)methyl)-5-(1-methyl-1H-pyrrol-2-yl)benzamide]	0.35	
COc1cnccc1-c1cc(Cn2ccn(C)c2=N)cc(C(=O)NCc2ccc(Cl)c(C)c2)c1 [Example 20, N-(4-Chloro-3-methylbenzyl)-3-((2-imino-3-methyl-2,3-dihydro-1H-imidazol-1-yl)methyl)-5-(3-methoxypyridin-4-yl)benzamide]	2.5	
COc1cc(-c2cc(Cn3ccn(C)c3=N)cc(C(=O)NCc3ccc(Cl)c(Cl)c3)c2)ccn1 [Example 24, N-(3,4-Dichlorobenzyl)-3-((2-imino-3-methyl-2,3-dihydro-1H-imidazol-1-yl)methyl)-5-(2-methoxypyridin-4-yl)benzamide]	25	
Cc1ncccc1-c1cc(Cn2ccn(C)c2=N)cc(C(=O)NCc2cncnc2)c1 [Example 40, 3-((2-Imino-3-methyl-2,3-dihydro-1H-imidazol-1-yl)methyl)-5-(2-methylpyridin-3-yl)-N-(pyrimidin-5-ylmethyl)benzamide]	133	
COc1cc(CNC(=O)c2cc(Cn3ccn(C)c3=N)cc(-c3cccnc3C)c2)ccn1 [Example 41, 3-((2-Imino-3-methyl-2,3-dihydro-1H-imidazol-1-yl)methyl)-N-((2-methoxypyridin-4-yl)methyl)-5-(2-methylpyridin-3-yl)benzamide]	33	

SMILES	Ki [1] [nM]	Ki [nM]
COc1ccnc(CNC(=O)c2cc(Cn3ccn(C)c3=N)cc(-c3cccnc3C)c2)c1 [Example 43, 3-((2-Imino-3-methyl-2,3-dihydro-1H-imidazol-1-yl)methyl)-N-((4-methoxypyridin-2-yl)methyl)-5-(2-methylpyridin-3-yl)benzamide]	8420	
COc1cc(CN(C)C(=O)c2cc(Cn3ccn(C)c3=N)cc(-c3ccnc(C)c3)c2)cc(OC)c1 [Example 48, N-(3,5-dimethoxybenzyl)-3-((2-imino-3-methyl-2,3-dihydro-1H-imidazol-1-yl)methyl)-N-methyl-5-(2-methylpyridin-4-yl)benzamide]	26	
Cc1cc(-c2cc(Cn3ccn(C)c3=N)cc(C(=O)NC(C3CC3)C3CC3)c2)ccn1 [Example 49, N-(Dicyclopropylmethyl)-3-((2-imino-3-methyl-2,3-dihydro-1H-imidazol-1-yl)methyl)-5-(2-methylpyridin-4-yl)benzamide]	22	
Cc1cc(-c2cc(Cn3ccn(C)c3=N)cc(C(=O)NCc3ncc(Cl)cn3)c2)ccn1 [Example 51, N-((5-Chloropyrimidin-2-yl)methyl)-3-((2-imino-3-methyl-2,3-dihydro-1H-imidazol-1-yl)methyl)-5-(2-methylpyridin-4-yl)benzamide]	17	
COc1cc(CNC(=O)c2cc(Cn3ccn(C)c3=N)cc(-c3cnc(F)cc3C)c2)cc(OC)c1 [Example 78, N-(3,5-Dimethoxybenzyl)-3-(6-fluoro-4-methylpyridin-3-yl)-5-((2-imino-3-methyl-2,3-dihydro-1H-imidazol-1-yl)methyl)benzamide]	5.9	
Cc1cc(CNC(=O)c2cc(Cn3ccn(C)c3=N)cc(-c3cnc(F)cc3C)c2)ccc1Cl [Example 79, N-(4-Chloro-3-methylbenzyl)-3-(6-fluoro-4-methylpyridin-3-yl)-5-((2-imino-3-methyl-2,3-dihydro-1H-imidazol-1-yl)methyl)benzamide]	4.3	
Cc1cc(CNC(=O)c2cc(Cn3ccn(C)c3=N)cc(-c3ccc(=O)[nH]c3C)c2)ccc1Cl [Example 80, N-(4-Chloro-3-methylbenzyl)-3-((2-imino-3-methyl-2,3-dihydro-1H-imidazol-1-yl)methyl)-5-(2-methyl-6-oxo-1,6-dihydropyridin-3-yl)benzamide]	20	
COc1cc(CNC(=O)c2cc(Cn3ccn(C)c3=N)cc(-c3c[nH]c(=O)cc3C)c2)cc(OC)c1 [Example 81, N-(3,5-Dimethoxybenzyl)-3-((2-imino-3-methyl-2,3-dihydro-1H-imidazol-1-yl)methyl)-5-(4-methyl-6-oxo-1,6-dihydropyridin-3-yl)benzamide]	13	
Cc1cc(=O)[nH]cc1-c1cc(Cn2ccn(C)c2=N)cc(C(=O)NCc2ccc(Cl)c(Cl)c2)c1 [Example 82, N-(3,4-dichlorobenzyl)-3-((2-imino-3-methyl-2,3-dihydro-1H-imidazol-1-yl)methyl)-5-(4-methyl-6-oxo-1,6-dihydropyridin-3-yl)benzamide]	20	
Cc1cc(CNC(=O)c2cc(Cn3ccn(C)c3=N)cc(-c3c[nH]c(=O)cc3C)c2)ccc1Cl [Example 83, N-(4-Chloro-3-methylbenzyl)-3-((2-imino-3-methyl-2,3-dihydro-1H-imidazol-1-yl)methyl)-5-(4-methyl-6-oxo-1,6-dihydropyridin-3-yl)benzamide]	7.1	
Cc1ccccc1-c1cc(Cn2ccn(C)c2=N)cc(C(=O)NCc2ccc(Cl)c(Cl)c2)c1 [Example 92, N-(3,4-dichlorobenzyl)-5-((2-imino-3-methyl-2,3-dihydro-1H-imidazol-1-yl)methyl)-2′-methyl-[1,1′-biphenyl]-3-carboxamide]	0.72	
COc1ccnc([C@H](NC(=O)c2cc(Cn3ccn(C)c3=N)cc(-c3ccc(F)cc3C)c2)C2CC2)c1 [Example 93, (R)—N-(Cyclopropyl(4-methoxypyridin-2-yl)methyl)-4′-fluoro-5-((2-imino-3-methyl-2,3-dihydro-1H-imidazol-1-yl)methyl)-2′-methyl-[1,1′-biphenyl]-3-carboxamide]	1.9	
Cc1cc([C@@H](NC(=O)c2cc(Cn3ccn(C)c3=N)cc(-c3ncnc4c3CCCC4)c2)C2CC2)ccc1F [Example 94, (S)—N-(Cyclopropyl(4-fluoro-3-methylphenyl)methyl)-3-((2-imino-3-methyl-2,3-dihydro-1H-imidazol-1-yl)methyl)-5-(5,6,7,8-tetrahydroquinazolin-4-yl)benzamide]	36	
Cc1ccnc(C(NC(=O)c2cc(Cn3ccn(C)c3=N)cc(-c3ncnc4c3CCCC4)c2)C2CC2)c1 (stereo not shown) [Example 95, N-(Cyclopropyl(4-methylpyridin-2-yl)methyl)-3-((2-imino-3-methyl-2,3-dihydro-1H-imidazol-1-yl)methyl)-5-(5,6,7,8-tetrahydroquinazolin-4-yl)benzamide]		20
COc1cc(OC)cc(C(NC(=O)c2cc(Cn3ccn(C)c3=N)cc(-c3ncnc4c3CCCC4)c2)C2CC2)c1 (stereo not shown) [Example 96, N-(Cyclopropyl(3,5-dimethoxyphenyl)methyl)-3-((2-imino-3-methyl-2,3-dihydro-1H-imidazol-1-yl)methyl)-5-(5,6,7,8-tetrahydroquinazolin-4-yl)benzamide]	27	
